Measurements as given in ChEMBL document CHEMBL1201862, “PubChem BioAssay data set” (2004).
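Briefly, cells in 96-well plates were exposed to five compound concentrations for 48 h, and endpoints were estimated by linear interpolation. The concentration for 50% growth inhibition is given as GI50.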 Activity calls are given as the source filed them. No stated cut-off is given here; in the data, active = GI50 up to about 1.1 µM and inactive = higher.

Legend:
Experiment in all cases: NCI tumour cell line growth inhibition, 48 h
SR = tested on: SR
BT-549 = tested on: BT-549
MDA-N = tested on: MDA-N
NCI-H226 = tested on: NCI-H226
CCRF-CEM = tested on: CCRF-CEM
SNB-19 = tested on: SNB-19
Malme-3M = tested on: Malme-3M
SF-295 = tested on: SF-295
HOP-92 = tested on: HOP-92
MDA-MB-435 = tested on: MDA-MB-435
IGROV-1 = tested on: IGROV-1
LOX IMVI = tested on: LOX IMVI
HCT-116 = tested on: HCT-116
OVCAR-5 = tested on: OVCAR-5
K562 = tested on: K562
MCF7 = tested on: MCF7
HCC 2998 = tested on: HCC 2998
DLD-1 = tested on: DLD-1
CAKI-1 = tested on: CAKI-1
Hs-578T = tested on: Hs-578T

Compound | GI50 (SR) | GI50 (BT-549) | GI50 (MDA-N) | GI50 (NCI-H226) | GI50 (CCRF-CEM) | GI50 (SNB-19) | GI50 (Malme-3M) | GI50 (SF-295) | GI50 (HOP-92) | GI50 (MDA-MB-435) | GI50 (IGROV-1) | GI50 (LOX IMVI) | GI50 (HCT-116) | GI50 (OVCAR-5) | GI50 (K562) | GI50 (MCF7) | GI50 (HCC 2998) | GI50 (DLD-1) | GI50 (CAKI-1) | GI50 (Hs-578T)
O=P1(NCCCl)OCCC(OO)N1CCCl (stereo not given) | > 100 µM (inactive) | 39.5 µM (inactive) | 29.3 µM (inactive) | > 100 µM (inactive) | 9.44 µM (inactive) | > 52 µM (inactive) | 17.3 µM (inactive) | 1.72 µM (inactive) | 16.8 µM (inactive) | 56.1 µM (inactive) | > 100 µM (inactive) | 1.82 µM (inactive) | 15.8 µM (inactive) | 42.9 µM (inactive) | 19.4 µM (inactive) | 24.9 µM (inactive) | > 100 µM (inactive) | 21.2 µM (inactive) | 18.3 µM (inactive) | 50.4 µM (inactive)
C=C(CN(C)C)C(=O)c1ccc(OC)cc1 | 1.05 µM (active) | 6.56 µM (inactive) | 7.46 µM (inactive) | 6.76 µM (inactive) | 0.186 µM (active) | 20 µM (inactive) | 1.48 µM (inactive) | 28.5 µM (inactive) | 1.32 µM (inactive) | 10.5 µM (inactive) | 10.7 µM (inactive) | 4.49 µM (inactive) | 1.58 µM (inactive) | 13.6 µM (inactive) | 0.622 µM (active) | 2.77 µM (inactive) | 14.2 µM (inactive) | 0.427 µM (active) | 1.5 µM (inactive) | 15.5 µM (inactive)
